Data from patent US9801880B2, “Use of kinase inhibitors” (BerGenBio AS, priority 2013, dated 2017).

Key:
Flt3 (D835H) = target: T1, Flt3 (D835H) (Homo sapiens, UniProt P36888, D835H); experiment: KinomeScan competition binding assay
T1 construct: purchased DiscoveRx Corporation (KinomeScan service)
Text: (§1) Detailed assay methodologies can be found in the relevant references cited herein, or in the KinaseProfiler Service Assay Protocols (v54, 2011) available from EMD Millipore (www.emdmillipore.com), or from the KinomeScan website (www.kinomescan.com), as appropriate. (For a more detailed description of KINOMEscan's assay technology, see: Fabian et al. A small molecule-kinase interaction map for clinical kinase inhibitors. Nat. Biotechnol. 23, 329-336 (2005)). A summary is provided below.
(§2) KinomeScan™ assays (DiscoveRx Corporation, San Diego, Calif., USA) are active-site-directed competition binding assays. […] The amount of kinase captured in test versus control samples is determined by using a qPCR method that detects the associated DNA label on each kinase molecule. Dissociation constants (Kd) for test compound-kinase interactions are calculated by measuring the amount of kinase captured on the solid support as a function of the test compound concentration.

Ret (M918T) = target: T2, Ret (M918T) (Homo sapiens, UniProt P07949, M918T); experiment: KinomeScan competition binding assay
T2 construct: purchased DiscoveRx Corporation (KinomeScan service)
T2 sequence (P07949 29-1114 M918T): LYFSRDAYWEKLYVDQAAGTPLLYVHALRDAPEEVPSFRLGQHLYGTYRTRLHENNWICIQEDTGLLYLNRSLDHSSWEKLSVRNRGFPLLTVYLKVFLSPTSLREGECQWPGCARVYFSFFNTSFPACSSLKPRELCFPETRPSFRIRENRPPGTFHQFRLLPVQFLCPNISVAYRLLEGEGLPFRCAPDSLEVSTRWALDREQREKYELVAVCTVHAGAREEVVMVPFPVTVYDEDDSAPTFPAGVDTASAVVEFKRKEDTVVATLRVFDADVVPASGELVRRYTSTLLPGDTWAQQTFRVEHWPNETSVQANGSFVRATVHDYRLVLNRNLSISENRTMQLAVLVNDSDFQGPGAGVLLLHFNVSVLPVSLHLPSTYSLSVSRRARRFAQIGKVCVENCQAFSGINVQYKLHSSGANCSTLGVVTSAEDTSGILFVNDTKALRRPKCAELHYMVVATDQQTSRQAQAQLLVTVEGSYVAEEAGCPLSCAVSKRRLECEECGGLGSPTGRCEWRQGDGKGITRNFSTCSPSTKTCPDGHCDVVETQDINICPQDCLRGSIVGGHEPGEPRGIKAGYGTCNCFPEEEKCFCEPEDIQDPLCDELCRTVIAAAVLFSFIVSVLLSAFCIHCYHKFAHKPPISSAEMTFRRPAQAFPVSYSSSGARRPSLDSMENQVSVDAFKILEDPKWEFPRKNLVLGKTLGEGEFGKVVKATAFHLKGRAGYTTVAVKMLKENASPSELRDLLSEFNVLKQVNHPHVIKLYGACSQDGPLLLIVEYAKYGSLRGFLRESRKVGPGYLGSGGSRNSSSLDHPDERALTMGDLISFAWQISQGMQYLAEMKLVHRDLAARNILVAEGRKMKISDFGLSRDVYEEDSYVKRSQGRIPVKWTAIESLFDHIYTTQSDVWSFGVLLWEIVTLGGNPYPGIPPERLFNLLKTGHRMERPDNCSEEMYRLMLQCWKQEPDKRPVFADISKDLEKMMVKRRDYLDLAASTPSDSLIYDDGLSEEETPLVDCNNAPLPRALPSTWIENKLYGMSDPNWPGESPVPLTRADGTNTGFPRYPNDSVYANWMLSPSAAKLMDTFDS
Text: as §1, §2

Ysk4 = target: T3, Ysk4 (Homo sapiens, UniProt Q56UN5); experiment: KinomeScan competition binding assay
T3 construct: purchased DiscoveRx Corporation (KinomeScan service)
T3 sequence (Q56UN5 whole entry): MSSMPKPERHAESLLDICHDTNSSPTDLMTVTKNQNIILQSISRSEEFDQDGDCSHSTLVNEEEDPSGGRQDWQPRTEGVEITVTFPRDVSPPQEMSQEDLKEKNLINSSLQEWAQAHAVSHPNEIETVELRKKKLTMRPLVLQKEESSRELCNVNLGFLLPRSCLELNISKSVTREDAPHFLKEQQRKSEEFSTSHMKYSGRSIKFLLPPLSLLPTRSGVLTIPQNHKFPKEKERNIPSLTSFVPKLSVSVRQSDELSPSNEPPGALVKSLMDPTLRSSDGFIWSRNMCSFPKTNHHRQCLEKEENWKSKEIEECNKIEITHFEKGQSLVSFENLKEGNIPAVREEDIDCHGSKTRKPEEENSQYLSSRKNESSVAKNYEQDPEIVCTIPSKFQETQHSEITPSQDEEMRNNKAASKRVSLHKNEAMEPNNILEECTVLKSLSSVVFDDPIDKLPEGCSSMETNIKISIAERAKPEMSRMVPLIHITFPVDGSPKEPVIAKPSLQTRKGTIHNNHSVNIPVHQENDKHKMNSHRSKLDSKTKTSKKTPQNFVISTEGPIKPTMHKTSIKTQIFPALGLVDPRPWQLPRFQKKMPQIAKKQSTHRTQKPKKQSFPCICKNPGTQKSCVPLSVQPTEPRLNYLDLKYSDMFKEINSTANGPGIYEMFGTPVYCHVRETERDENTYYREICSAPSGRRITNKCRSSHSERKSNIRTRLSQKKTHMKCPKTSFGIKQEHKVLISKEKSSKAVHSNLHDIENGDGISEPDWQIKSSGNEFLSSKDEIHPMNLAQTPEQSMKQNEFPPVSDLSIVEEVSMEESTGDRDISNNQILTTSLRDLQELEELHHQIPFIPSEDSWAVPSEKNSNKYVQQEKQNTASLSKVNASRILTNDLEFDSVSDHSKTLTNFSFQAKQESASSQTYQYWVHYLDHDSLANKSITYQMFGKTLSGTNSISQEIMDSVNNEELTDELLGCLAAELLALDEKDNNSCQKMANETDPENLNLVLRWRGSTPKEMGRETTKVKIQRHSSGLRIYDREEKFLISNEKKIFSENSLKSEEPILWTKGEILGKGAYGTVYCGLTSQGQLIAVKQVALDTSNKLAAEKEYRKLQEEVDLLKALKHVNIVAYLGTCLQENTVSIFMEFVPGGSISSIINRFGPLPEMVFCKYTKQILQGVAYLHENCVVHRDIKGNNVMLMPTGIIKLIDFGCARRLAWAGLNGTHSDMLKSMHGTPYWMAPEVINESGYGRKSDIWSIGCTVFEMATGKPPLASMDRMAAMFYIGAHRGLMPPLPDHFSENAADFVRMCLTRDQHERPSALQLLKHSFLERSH
Text: as §1, §2

TEK(R849W) = target: T4, TEK(R849W) (Homo sapiens, UniProt Q02763, R849W); experiment: KinaseProfiler kinase activity assay; format: biochemical; details: ATP at Km
T4 construct: purchased EMD Millipore Corp. (KinaseProfiler service)
T4 sequence (Q02763 23-1124 R849W): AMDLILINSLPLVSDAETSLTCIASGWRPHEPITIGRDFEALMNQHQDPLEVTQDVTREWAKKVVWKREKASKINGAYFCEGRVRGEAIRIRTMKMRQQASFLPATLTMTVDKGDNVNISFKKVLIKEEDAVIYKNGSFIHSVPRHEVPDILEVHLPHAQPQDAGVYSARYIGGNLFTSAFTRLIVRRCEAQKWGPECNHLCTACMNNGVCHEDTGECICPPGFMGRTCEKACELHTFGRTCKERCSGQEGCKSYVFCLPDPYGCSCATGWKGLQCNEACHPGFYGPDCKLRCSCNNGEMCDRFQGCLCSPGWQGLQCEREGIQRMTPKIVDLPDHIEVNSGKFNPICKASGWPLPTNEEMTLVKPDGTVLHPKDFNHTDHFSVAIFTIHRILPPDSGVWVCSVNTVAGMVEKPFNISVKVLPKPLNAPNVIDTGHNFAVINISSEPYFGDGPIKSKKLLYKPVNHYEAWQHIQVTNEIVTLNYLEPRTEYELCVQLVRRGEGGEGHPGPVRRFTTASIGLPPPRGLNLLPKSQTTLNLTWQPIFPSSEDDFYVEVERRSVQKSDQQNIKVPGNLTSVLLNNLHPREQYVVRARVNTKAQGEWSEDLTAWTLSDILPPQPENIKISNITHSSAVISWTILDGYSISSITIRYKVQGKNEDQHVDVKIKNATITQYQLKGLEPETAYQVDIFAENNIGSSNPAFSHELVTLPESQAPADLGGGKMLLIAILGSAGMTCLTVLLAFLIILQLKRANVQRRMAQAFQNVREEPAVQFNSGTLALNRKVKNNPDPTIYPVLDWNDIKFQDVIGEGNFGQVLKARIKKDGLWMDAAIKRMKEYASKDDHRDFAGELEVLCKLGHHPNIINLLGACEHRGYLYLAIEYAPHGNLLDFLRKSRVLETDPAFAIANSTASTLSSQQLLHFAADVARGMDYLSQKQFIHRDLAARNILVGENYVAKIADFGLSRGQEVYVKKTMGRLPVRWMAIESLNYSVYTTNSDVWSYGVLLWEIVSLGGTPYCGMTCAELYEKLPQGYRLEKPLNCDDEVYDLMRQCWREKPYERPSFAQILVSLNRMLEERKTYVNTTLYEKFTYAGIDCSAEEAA
Text: (§3) A summary is provided below.

TEK(Y897S) = target: T5, TEK(Y897S) (Homo sapiens, UniProt Q02763, Y897S); experiment: KinaseProfiler kinase activity assay; format: biochemical; details: ATP at Km
T5 construct: purchased EMD Millipore Corp. (KinaseProfiler service)
T5 sequence (Q02763 23-1124 Y897S): as the sequence (Q02763 23-1124 R849W) above, with W827R, Y875S counted along it
Text: as §3

[1] = target: Other mutations of Abl kinase that arise during development of resistance (Homo sapiens, UniProt P00519); experiment: Inhibition of other Abl kinase resistance mutations (biochemical assays); details: read-out: inhibition range, other mutations of Abl kinase
Chain of Other mutations of Abl kinase that arise during development of resistance (P00519 whole entry, looked up, change not shown): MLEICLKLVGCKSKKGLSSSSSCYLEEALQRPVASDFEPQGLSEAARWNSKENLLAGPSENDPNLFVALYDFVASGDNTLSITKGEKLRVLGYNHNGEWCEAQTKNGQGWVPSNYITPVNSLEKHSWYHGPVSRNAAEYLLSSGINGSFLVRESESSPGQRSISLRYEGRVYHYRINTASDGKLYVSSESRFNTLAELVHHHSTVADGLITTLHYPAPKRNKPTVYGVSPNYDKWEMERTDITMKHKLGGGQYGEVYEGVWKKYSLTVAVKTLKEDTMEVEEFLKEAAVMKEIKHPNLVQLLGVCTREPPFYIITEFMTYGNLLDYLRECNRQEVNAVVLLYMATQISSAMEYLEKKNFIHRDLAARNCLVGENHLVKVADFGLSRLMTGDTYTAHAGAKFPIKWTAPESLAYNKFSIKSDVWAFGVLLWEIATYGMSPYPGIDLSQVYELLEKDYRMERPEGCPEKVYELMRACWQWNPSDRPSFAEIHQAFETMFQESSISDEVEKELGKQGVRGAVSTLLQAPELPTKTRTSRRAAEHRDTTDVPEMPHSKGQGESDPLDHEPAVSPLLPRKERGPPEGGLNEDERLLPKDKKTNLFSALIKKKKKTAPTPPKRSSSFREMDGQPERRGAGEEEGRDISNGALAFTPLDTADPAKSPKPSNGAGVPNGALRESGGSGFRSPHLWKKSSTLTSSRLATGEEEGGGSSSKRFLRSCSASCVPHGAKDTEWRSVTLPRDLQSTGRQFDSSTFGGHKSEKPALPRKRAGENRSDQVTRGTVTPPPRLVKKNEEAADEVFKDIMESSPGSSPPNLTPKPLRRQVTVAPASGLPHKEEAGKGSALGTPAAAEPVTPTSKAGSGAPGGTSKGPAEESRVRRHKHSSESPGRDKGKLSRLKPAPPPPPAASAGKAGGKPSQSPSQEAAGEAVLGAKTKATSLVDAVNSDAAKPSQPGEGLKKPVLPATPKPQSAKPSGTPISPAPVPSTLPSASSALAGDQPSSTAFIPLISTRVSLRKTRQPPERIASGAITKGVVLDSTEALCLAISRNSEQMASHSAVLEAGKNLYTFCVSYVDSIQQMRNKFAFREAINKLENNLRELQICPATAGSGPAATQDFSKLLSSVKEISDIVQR
Text: as §1
KinaseProfiler™ assays (EMD Millipore Corp. Billerica, Mass., USA) are […] with purified or partially-purified human kinases. Most of the KinaseProfiler™ assays are conducted in 20 mM MOPS, 1 mM EDTA, 0.01% Brij-35, 5% Glycerol, 0.1% b-mercaptoethanol, 1 mg/mL BSA. The assay involves the transfer of ^32P from γ-^32P-ATP to the target peptide, followed by washing and trapping of the labeled peptide on a filter. The concentration of γ-^32P-ATP used was at the established Km for ATP.

[2] = test system: Flt3 mutations D835H, D835Y, K663Q, and A829P; experiment: Inhibition of Flt3 mutations (biochemical assays, format not stated)
Text: as §3

BaF3/T315I cells = experiment: Subcutaneous BaF3/T315I tumor model; format: in vivo; details: 25 (or 50) mg/kg twice per day via gavage; NSG mice
Protocol: 6- to 8-week-old male NSG mice were implanted subcutaneously with 1×10^7 BaF3/wt-BCR-ABL or 1×10^7 BaF3/T315I cells per mouse into the right flank. Five days after implantation mice were randomized into groups with a mean volume of approximately 100 mm^3. […] Tumor volume was measured every 2-3 days. Animals were sacrificed at day 12 and tumors embedded for histology.

`Nc1nc(Nc2ccc3c(c2)CC[C@@H](N2CCCC2)CC3)nn1-c1cc2c(nn1)-c1ccccc1CCC2` [Compound A, 1-(6,7-dihydro-5H-benzo[6,7]cyclohepta[1,2-c]pyridazine-3-yl)-N^3-(7-(S)-(pyrrolidin-1-yl)-6,7,8,9-tetrahydro-5H-benzo[7]annulene-2-yl)-1H-1,2,4-triazole-3,5-diamine] gave a Kd (Flt3 (D835H)) of 8.4 nM, a Kd (Ret (M918T)) of 30 nM and a Kd (Ysk4) of 1.6 nM. It also gave an IC50 (TEK(R849W)) of 22 nM, an IC50 (TEK(Y897S)) of 13 nM and an IC50 [1] of 16 to 32 nM. For the same compound, the “inhibition range, Flt3 mutations” value [2] was 8 to 29 nM and the “inhibition of T315I mutated CML in vivo (tumor volume)” value (BaF3/T315I cells) was “potentially inhibits”.
